For one experiment, the system named is isolated rat uterus. As to the kind of experiment: Effect on spontaneous uterus motility, same general method on isolated rat uterus (in vitro). It counts as cell-based. The following applies: for selectivity ratio (EC50 uterus / EC50 colon): colon versus uterus; for EC50: isolated rat uterus, spontaneous motility.
The test system of experiment [1] is isolated proximal colon rat strips. As to the kind of experiment: Reduction of spontaneous contractile activity of isolated proximal colon rat strips (in vitro). The format is cell-based. The following applies: Krebs-Ringer, 37° C., read-out: EC50, on colon (concentration effective to reduce by 50% the contractile activity observed in controls). The source says: In particular, their effects in reducing colon spontaneous motility have been observed in in vitro normalized pharmacological tests and has been confirmed in the animal in vivo.
In the in vitro tests, the capability of different concentrations of the phenylethanolaminomethyltetralins of the present invention to reduce, under particular normalised conditions, the spontaneous contractile activity of isolated proximal colon rat strips has been evaluated.
Not fasted male rats weighing 250-300 g are sacrificed. The proximal part of the colon, approximately a 2 to 3 cm segment, is removed and suspended in a 20-ml organ bath containing oxygenated (5% CO2, 95% O2) Krebs-Ringer solution with the following mM composition: NaCl 118.4; KCl 4.7; CaCl2 2.45; MgSO4 1.16; NaH2 PO4 3.7; glucose 5.6; NaHCO3 30.9, kept at a constant temperature of 37° C. The colon strips submitted to a 1 g traction spontaneously contract. The test compounds are added thereto after stabilisation of the preparation (2h).
The EC50, i.e. the concentration which is effective to reduce by 50% the contractile activity observed in controls, is determined.

The values below come from patent publication US5130339A, “Phenylethanolaminomethyltetralins and pharmaceutical use” (Sanofi, priority 1989, dated 1992).

On to `COc1ccc2c(c1)CC(CNCC(O)c1cccc(Cl)c1)CC2.Cl` (stereo not drawn) [Example 4, N-[(7-methoxy-1,2,3,4-tetrahydronaphth-2-yl)methyl]-2-hydroxy-2-(3-chlorophenyl)ethanamine hydrochloride], for which the “selectivity ratio (EC50 uterus / EC50 colon)” value in the experiment with isolated rat uterus is reported as 57. Moreover, the EC50 with isolated rat uterus was 2450 nM; in experiment [1] it was 43 nM.

Take `COc1ccc2c(c1)CC(NCC(O)c1cccc(Cl)c1)CC2.Cl` (stereo not drawn) [Example 7 of EP-B-211,721, N-(7-methoxy-1,2,3,4-tetrahydronaphth-2-yl)-2-hydroxy-2-(3-chlorophenyl)ethanamine hydrochloride]: in the experiment on isolated rat uterus, the “selectivity ratio (EC50 uterus / EC50 colon)” value is reported as “lower than 2” and the EC50 is 350 nM. The EC50 in experiment [1] turned out to be 194 nM.

As for `Oc1ccc2c(c1)CC(NCC(O)c1cccc(Cl)c1)CC2` (stereo not drawn) [Example 8 of EP-B-211,721], in the experiment on isolated rat uterus, the “selectivity ratio (EC50 uterus / EC50 colon)” value came out at 1 and the EC50 came out at 110 nM. Moreover, in experiment [1], the EC50 was found to be 110 nM.

For `O=C(O)C(=O)O.Oc1ccc2c(c1)CC(CNCC(O)c1cccc(Cl)c1)CC2` (stereo not drawn) [Example 10, N-[(7-hydroxy-1,2,3,4-tetrahydronaphth-2-yl)methyl]-2-hydroxy-2-(3-chlorophenyl)ethanamine oxalate], in the experiment with isolated rat uterus, the “selectivity ratio (EC50 uterus / EC50 colon)” value is reported as “about 7”. Also, the EC50 with isolated rat uterus is 50 nM; in experiment [1], 7 nM.
